Measured values: the Kinase Knowledgebase extract (Sharma et al. 2016)

biological target: MAPK14 (UniProt Q16539); experiment: Inhibition of MAPK14 Kinase Activity
Sequence (Q16539 whole entry, looked up): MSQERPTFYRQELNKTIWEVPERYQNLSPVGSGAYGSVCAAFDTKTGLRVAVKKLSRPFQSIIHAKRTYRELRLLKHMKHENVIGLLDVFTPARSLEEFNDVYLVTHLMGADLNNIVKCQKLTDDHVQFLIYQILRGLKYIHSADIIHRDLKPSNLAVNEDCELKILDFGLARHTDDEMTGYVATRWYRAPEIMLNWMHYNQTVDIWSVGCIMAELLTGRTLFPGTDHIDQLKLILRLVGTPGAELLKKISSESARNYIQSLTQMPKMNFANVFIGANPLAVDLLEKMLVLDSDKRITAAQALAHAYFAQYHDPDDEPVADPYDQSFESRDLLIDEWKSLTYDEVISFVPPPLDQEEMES

IC50, ≤ 5 µM:
CC(C)S(=O)(=O)n1c(N)nc2ccc(-c3c(-c4ccccc4F)ncn3[C@H]3CC[C@H](O)CC3)cc21
CC(C)S(=O)(=O)n1c(N)nc2ccc(-c3c(-c4cccc(F)c4)ncn3C3CC3)cc21
CC(C)S(=O)(=O)n1c(N)nc2ccc(-c3c(C#N)cnn3-c3ccccc3)cc21
CC(C)S(=O)(=O)n1c(N)nc2ccc(-c3nc(-c4cccs4)[nH]c3-c3ccccc3)cc21
CC(C)S(=O)(=O)n1c(N)nc2ccc(-c3c(-c4ccccc4F)ncn3Cc3cccnc3)cc21
CC(C)S(=O)(=O)n1c(N)nc2ccc(-c3c(-c4ccccc4)nc4n3CCC4)cc21
CC(C)S(=O)(=O)n1c(N)nc2ccc(-c3c(-c4ccccc4)ncn3C3CCC(O)CC3)cc21 (stereo not given)
CCN1CCC(c2nc(-c3ccc4nc(N)n(S(=O)(=O)C(C)C)c4c3)c(-c3ccccc3)[nH]2)CC1
CC(C)S(=O)(=O)n1c(N)nc2ccc(-c3c(-c4ccccc4)ncn3C3CCC4(CC3)OCCO4)cc21
CC(C)CN1CCC(c2nc(-c3ccc4nc(N)n(S(=O)(=O)C(C)C)c4c3)c(-c3ccc(F)cc3)[nH]2)CC1
CC(C)c1nc(-c2ccc3nc(N)n(S(=O)(=O)C(C)C)c3c2)c(-c2ccc(F)cc2)[nH]1
CC(C)S(=O)(=O)n1c(N)nc2ccc(-c3nc(-c4ccc(S(C)(=O)=O)cc4)[nH]c3-c3ccccc3)cc21
CC(C)S(=O)(=O)n1c(N)nc2ccc(-c3c(-c4ccccc4)ncn3[C@@H](C)CO)cc21
CC(C)S(=O)(=O)n1c(N)nc2ccc(-c3nc(-c4cccc(C(F)(F)F)c4)[nH]c3-c3ccccc3)cc21
CC(C)S(=O)(=O)n1c(N)nc2ccc(-c3c(-c4ccccc4F)nc(C#C[Si](C)(C)C)n3C3CC3)cc21
CC(C)S(=O)(=O)n1c(N)nc2ccc(-c3nc(-c4ccc([N+](=O)[O-])cc4)[nH]c3-c3ccccc3)cc21
CC(C)S(=O)(=O)n1c(N)nc2ccc(-c3nc(CCC(=O)O)[nH]c3-c3ccccc3)cc21
CC(C)S(=O)(=O)n1c(N)nc2ccc(-c3nc(C4CCN(C(=O)OC(C)(C)C)CC4)[nH]c3-c3ccc(F)cc3)cc21
CC(C)S(=O)(=O)n1c(N)nc2ccc(-c3nc(-c4c(F)cc(OCCN5CCCC5)cc4F)[nH]c3-c3ccccc3)cc21
CC(C)S(=O)(=O)n1c(N)nc2ccc(-c3c(-c4ccccc4F)nc(-c4c[nH]nn4)n3C3CC3)cc21
CC(C)c1nc(-c2ccc3nc(N)n(S(=O)(=O)C(C)C)c3c2)c(-c2ccccc2)[nH]1
CC(C)S(=O)(=O)n1c(N)nc2ccc(-c3nc(C4CCOCC4)[nH]c3-c3ccccc3)cc21
CC(C)S(=O)(=O)n1c(N)nc2ccc(-c3nc(-c4ccc(N)cc4F)[nH]c3-c3ccccc3)cc21
CC(C)S(=O)(=O)n1c(N)nc2ccc(-c3c(-c4ccccc4)ncn3Cc3ccncc3)cc21
CC(C)S(=O)(=O)n1c(N)nc2ccc(-c3nc(-c4ccc(N(C)C)cc4)[nH]c3-c3ccccc3)cc21
CC(C)S(=O)(=O)n1c(N)nc2ccc(-c3c(-c4ccccc4F)nc(N)n3C3CC3)cc21
CC(C)S(=O)(=O)n1c(N)nc2ccc(-c3nc(-c4ccc([N+](=O)[O-])cc4F)[nH]c3-c3ccccc3)cc21
COCCn1cnc(-c2ccccc2)c1-c1ccc2nc(N)n(S(=O)(=O)C(C)C)c2c1
CC(C)S(=O)(=O)n1c(N)nc2ccc(-c3c(-c4ccc(F)cc4)ncn3C3CCN(Cc4ccccc4)CC3)cc21
CC(C)S(=O)(=O)n1c(N)nc2ccc(-c3nc(-c4cccs4)[nH]c3-c3ccc(C(F)(F)F)cc3)cc21
CC(C)S(=O)(=O)n1c(N)nc2ccc(-c3c(-c4ccccc4)ncn3C3CCN(C)CC3)cc21
Clc1nc2ccc(-c3c(-c4ccccc4)ncn3C3CCCCC3)cc2s1
CC(C)S(=O)(=O)n1c(N)nc2ccc(C3C(c4ccccc4)N=C4C=CC(Cl)=CN43)cc21 (stereo not given)
CCc1ccc(-c2nc(-c3ccc4nc(N)n(S(=O)(=O)C(C)C)c4c3)c(-c3ccccc3)[nH]2)s1
CC(C)S(=O)(=O)n1c(N)nc2ccc(-c3c(-c4ccc(F)cc4)ncn3C3CCN(C)CC3)cc21
CC(C)n1cnc(-c2ccc(F)cc2)c1-c1ccc2nc(N)n(S(=O)(=O)C(C)C)c2c1
CC(C)S(=O)(=O)n1c(N)nc2ccc(-c3nc(-c4ccc(OCCN(C)C)cc4)[nH]c3-c3ccccc3)cc21
CC(C)S(=O)(=O)n1c(N)nc2ccc(-c3c(-c4ccc(F)cc4)ncn3[C@H]3CC[C@H](O)CC3)cc21
CC(C)S(=O)(=O)n1c(N)nc2ccc(-c3c(-c4ccccc4)ncn3CCCN3CCOCC3)cc21
CCN(CC)CCOc1cccc(-c2nc(-c3ccc4nc(N)n(S(=O)(=O)C(C)C)c4c3)c(-c3ccccc3)[nH]2)c1
CC(C)S(=O)(=O)n1c(N)nc2ccc(-c3c(-c4ccc(F)cc4)nc4n3CCC4)cc21
Cc1ccsc1-c1nc(-c2ccc3nc(N)n(S(=O)(=O)C(C)C)c3c2)c(-c2ccccc2)[nH]1
CC(C)S(=O)(=O)n1c(N)nc2ccc(-c3nc(-c4cccs4)[nH]c3-c3cccc(C(F)(F)F)c3)cc21
CC(C)S(=O)(=O)n1c(N)nc2ccc(-c3nc(C4CCN(C(=O)OCc5ccccc5)CC4)[nH]c3-c3ccccc3)cc21
CC(C)S(=O)(=O)n1c(N)nc2ccc(-c3nc(C=O)[nH]c3-c3ccccc3)cc21
CC(C)S(=O)(=O)n1c(N)nc2ccc(-c3c(-c4ccccc4)ncn3C3CCNCC3)cc21
CC(C)S(=O)(=O)n1c(N)nc2ccc(-c3c(-c4ccccc4)ncn3Cc3ccc(F)cc3)cc21
CC(C)S(=O)(=O)n1c(N)nc2ccc(-c3cn[nH]c3-c3ccccc3)cc21
CC(C)S(=O)(=O)n1c(N)nc2ccc(-c3nc(C4CCCCC4)[nH]c3-c3ccc(F)cc3)cc21
CC(C)S(=O)(=O)n1c(N)nc2ccc(-c3nc(-c4ccc5c(c4)OCO5)[nH]c3-c3ccccc3)cc21
CC(C)S(=O)(=O)n1c(N)nc2ccc(-c3nc(-c4ccc(OCCCN(C)C)c(F)c4)[nH]c3-c3ccccc3)cc21
CC(C)S(=O)(=O)n1c(N)nc2ccc(-c3c(-c4ccccc4F)nc(-c4ccc(Cl)cc4)n3C3CC3)cc21
CC(=O)Nc1ccc(-c2nc(-c3ccc4nc(N)n(S(=O)(=O)C(C)C)c4c3)c(-c3ccccc3)[nH]2)cc1
CC(C)S(=O)(=O)n1c(N)nc2ccc(-c3nc(-c4ccc(Cl)s4)[nH]c3-c3ccc(F)cc3)cc21
CC(C)S(=O)(=O)n1c(N)nc2ccc(-c3nc[nH]c3-c3ccc(F)cc3)cc21
Nc1nc2ccc(-c3nc(-c4c(F)cccc4F)[nH]c3-c3ccccc3)cc2[nH]1
CC(C)S(=O)(=O)n1c(N)nc2ccc(-c3c(-c4ccccc4)ncn3[C@@H]3CCCC[C@H]3CO)cc21
CC(C)S(=O)(=O)n1c(N)nc2ccc(-c3nc(-c4cccc(OCCN5CCCC5)c4)[nH]c3-c3ccccc3)cc21
CC(C)S(=O)(=O)n1c(N)nc2ccc(-c3nc(-c4ccccc4Cl)[nH]c3-c3ccccc3)cc21
Nc1nc2ccc(-c3nc(-c4c(F)cccc4F)[nH]c3-c3ccccc3)cc2n1S(=O)(=O)C1CCCC1
CC(C)S(=O)(=O)n1c(N)nc2ccc(-c3nc(-c4c(F)cccc4F)oc3-c3ccccc3)cc21
CC(C)S(=O)(=O)n1c(N)nc2ccc(-c3nc(-c4ccc([N+](=O)[O-])s4)[nH]c3-c3ccccc3)cc21
CC(C)S(=O)(=O)n1c(N)nc2ccc(-c3nc(-c4c(F)cccc4Cl)[nH]c3-c3ccccc3)cc21
CC(C)S(=O)(=O)n1c(N)nc2ccc(-c3c(-c4ccccc4)nc(-c4c(F)cccc4F)n3C)cc21
CC(C)S(=O)(=O)n1c(N)nc2ccc(-c3nc(-c4cccnc4)[nH]c3-c3ccccc3)cc21
CC(C)S(=O)(=O)n1c(N)nc2ccc(-c3c(-c4ccccc4)ncn3C)cc21
CC(C)S(=O)(=O)n1c(N)nc2ccc(-c3nc(COCc4ccccc4)[nH]c3-c3ccccc3)cc21
CC(C)S(=O)(=O)n1c(N)nc2ccc(-c3nc(-c4cccc(OCCN5CCOCC5)c4)[nH]c3-c3ccccc3)cc21
CC(C)S(=O)(=O)n1c(N)nc2ccc(C3C(c4ccccc4)N=C4Sc5ccccc5N43)cc21 (stereo not given)
Cc1ccc(-c2nc(-c3ccc4nc(N)n(S(=O)(=O)C(C)C)c4c3)c(-c3ccccc3)[nH]2)cc1
CC(C)S(=O)(=O)n1c(N)nc2ccc(-c3c(-c4ccccc4)ncn3CCO)cc21
CC(C)S(=O)(=O)n1c(N)nc2ccc(-c3nc(-c4ccc(Cl)s4)[nH]c3-c3ccccc3)cc21
CC(C)S(=O)(=O)n1c(N)nc2ccc(-c3nc(-c4ccc(OC(F)(F)F)cc4)[nH]c3-c3ccccc3)cc21
CC(C)S(=O)(=O)n1c(N)nc2ccc(-c3[nH]n(-c4ccc([N+](=O)[O-])cc4)c(=O)c3-c3ccc(F)cc3)cc21
CCOC(=O)N1CCC(n2cnc(-c3ccccc3F)c2-c2ccc3nc(N)n(S(=O)(=O)C(C)C)c3c2)CC1
